Assay results published in US12612420B2, “Arginase inhibitors and methods of use thereof” (Molecure S.A., priority 2020, dated 2026).
Structures can show the parent of a compound that is named as a salt.

Key:
[1] = target: T1, recombinant human arginase 1 (hARG1) (Homo sapiens, UniProt P05089); test: Human arginase inhibition assay (colorimetric urea detection), arginase 1; type: biochemical; conditions: IC50 class; hydrochloride salts; 1 h at 37° C., pH 7.4, 10 mM L-arginine, 200 μM MnCl2; read-out: Activity Class (ARG I)
T1 construct: made in house; host or cells: E. coli
T1 sequence (P05089 1-322): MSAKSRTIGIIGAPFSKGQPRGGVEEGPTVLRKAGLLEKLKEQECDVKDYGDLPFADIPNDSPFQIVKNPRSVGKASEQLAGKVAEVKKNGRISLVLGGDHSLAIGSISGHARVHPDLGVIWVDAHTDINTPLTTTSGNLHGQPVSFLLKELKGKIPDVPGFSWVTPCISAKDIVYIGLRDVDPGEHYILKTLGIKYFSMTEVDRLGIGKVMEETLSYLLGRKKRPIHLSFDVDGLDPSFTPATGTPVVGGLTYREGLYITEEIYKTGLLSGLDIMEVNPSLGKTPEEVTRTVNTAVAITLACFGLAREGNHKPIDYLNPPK
Protocol: (§1) Human Arginase Inhibition Assay
(§2) The inhibitory activities of the compounds of the invention were assessed using recombinant human arginases 1 and 2. Both enzymes were biosynthesized using a prokaryotic expression system (E. coli) and purified by fast protein liquid chromatography (FPLC). The compounds were screened in 96-well plates at the total reaction volume of 100 μL. Briefly, recombinant enzymes were incubated with the tested compounds for 1 h at 37° C. in the reaction buffer (100 mM sodium phosphate buffer, 130 mM NaCl, 1 mg/mL BSA, pH 7.4) containing substrate (L-arginine hydrochloride, 10 mM for hARG1 and 20 mM for hARG2) and cofactor (200 μM MnCl2). The assay is based on the detection of urea, which is generated during the conversion of L-arginine into L-omithine catalyzed by ARG1 or ARG2 (Baggio et al. J Pharmacol. Exp. Ther. 1999, 290, 1409-1416). The colorimetrically detectable product was developed by adding a mixture of reagent A (4 mM oPA, 50 mM boric acid, 1 M sulfuric acid, 0.03% Brij-35) and reagent B (4 mM NED, 50 mM boric acid, 1 M sulfuric acid, 0.03% Brij-35) in equal proportions. The absorbance for each well was measured at 515 nm and the enzyme inhibition was calculated. The urea production in the absence of any tested compound was considered as maximal enzyme activity. The absorbance at the absence of arginase (background) was subtracted from all the values. The normalized values were analyzed using GraphPad Prism 7.0 software by plotting inhibition curves and determining the IC50 values.
(§3) The inhibitory activity classes of the hydrochloride salts of the exemplary compounds according to the invention are presented in Table 1

[2] = target: T2, recombinant human arginase 2 (hARG2) (Homo sapiens, UniProt P78540); test: Human arginase inhibition assay (colorimetric urea detection), arginase 2; type: biochemical; conditions: IC50 class; hydrochloride salts; 1 h at 37° C., pH 7.4, 20 mM L-arginine, 200 μM MnCl2; read-out: Activity Class (ARG II)
T2 construct: made in house; host or cells: E. coli
T2 sequence (P78540 23-354): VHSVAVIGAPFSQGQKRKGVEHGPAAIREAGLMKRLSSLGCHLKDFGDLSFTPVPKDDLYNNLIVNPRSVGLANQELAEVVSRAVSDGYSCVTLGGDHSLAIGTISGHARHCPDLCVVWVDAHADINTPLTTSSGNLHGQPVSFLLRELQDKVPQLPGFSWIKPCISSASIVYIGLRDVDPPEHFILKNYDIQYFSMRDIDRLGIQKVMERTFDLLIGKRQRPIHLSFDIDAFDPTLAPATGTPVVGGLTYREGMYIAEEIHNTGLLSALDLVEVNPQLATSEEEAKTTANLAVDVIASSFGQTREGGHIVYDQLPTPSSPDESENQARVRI
Protocol: as §1, §2, §3

[3] = target: T3, intracellular arginase in macrophages isolated from murine bone marrow (BMDM) (Mus musculus, UniProt Q61176); test: Cell-based assay: intracellular arginase in bone marrow derived macrophages (BMDM), urea in culture medium; design: species or system murine (C57BL/6 mice); conditions: IC50 class; M2-polarised murine BMDM (M-CSF, TGF-β, IL-4), urea in medium after 24 hours
T3 construct: endogenous in cells; host or cells: primary bone-marrow-derived macrophages from C57BL/6 mice, cultured with M-CSF, TGF-β and IL-4
T3 sequence (Q61176 1-323): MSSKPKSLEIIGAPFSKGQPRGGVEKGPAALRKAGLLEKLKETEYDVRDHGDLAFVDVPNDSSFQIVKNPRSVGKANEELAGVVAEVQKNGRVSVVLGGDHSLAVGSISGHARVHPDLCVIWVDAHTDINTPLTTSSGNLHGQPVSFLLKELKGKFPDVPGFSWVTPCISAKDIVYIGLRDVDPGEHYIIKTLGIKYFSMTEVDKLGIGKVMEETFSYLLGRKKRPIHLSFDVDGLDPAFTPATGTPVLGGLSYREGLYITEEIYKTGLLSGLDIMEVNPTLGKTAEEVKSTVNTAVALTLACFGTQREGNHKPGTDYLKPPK
Protocol: To illustrate the lower cellular activity of the compounds according to the invention versus arginase inhibitors disclosed in U.S. Ser. No. 10/391,077 B2, the selected examples were tested in cell-based assay using murine primary macrophages. Lower intracellular activity observed for the compounds according to the invention may potentially result in lower hepatotoxicity compared to the arginase inhibitors disclosed in U.S. Ser. No. 10/391,077 B2.
Efficacy of Selected Examples Towards Intracellular Arginase in Macrophages Isolated from Murine Bone Marrow—Bone Marrow Derived Macrophages (BMDM)
Murine bone marrow-derived or peritoneal macrophages comprise a convenient in vitro model that enables differentiation of these cells towards M1 or M2 macrophages and further use for the study.
Materials & Methods: The assay was performed according to modified literature protocol (Pineda-Torra I et al., Methods Mol Biol. 2015; 1339:101-9. Mia S et al., Scand J Immunol. 2014 May; 79(5):305-14). The femurs and tibias were isolated from C57BL/6 mice. Bones were cleaned from all attached tissues by using a sterile swab without affecting the bone structure. The sides of the bones were cut off and flush with cold sterile PBS by using 26-G needle S into a 50 mL sterile tube with a cell strainer (Falcon™, Cat. No. U00149), until the bone cavity appeared white. Then, the cells were centrifuged (5 min at 500×G, 4° C.), washed twice with PBS and counted. Cells were plated in Petri dish in density of 1×10^6/mL and cultured in DMEM (Gibco, Cat. No. 31331-029) with 10% FBS, 1% pen-strep and 50 ng/mL M-CSF (PeproTech, Cat. No. 315-02), (37° C., 5% CO2). After five days cells were subcultured into P96 plate (BD, Cat. No. 353072) at the density of 64,000 cells/well in medium supplemented with 50 ng/mL M-CSF, 20 ng/mL TGF-β and 30 ng/mL IL-4 (Biomibo Cat. No. 214-1). One day later exemplary compounds (dissolved in PBS) were added in several different concentrations and 24 hours later the level of urea was measured in the culture medium in each well (Jung D et al., Clin Chem. 1975, 21(8):1136-40). The concentration of urea in the absence of any compound was considered as the maximum enzyme activity. The absorbance of cell culture media (background) was subtracted from all the values.
The IC50 values were calculated using GraphPad Prism 7.0. and assigned into the following classes: A=10-100 μM; and B>100 μM.

SMILES	IC50 [1]	IC50 [2]	IC50 [3]
CC(C)[C@H](N)C(=O)NC[C@@H]1CC[C@@H](CCB(O)O)C[C@]1(N)C(=O)O [Example 2, (1R,2S,5R)-1-Amino-2-(((S)-2-amino-3-methylbutanamido)methyl)-5-(2-boronoethyl)cyclohexane-1-carboxylic acid dihydrochloride]	100 to 199 nM	200 to 299 nM	10000 to 100000 nM
N[C@@H](Cc1ccccc1)C(=O)NC[C@@H]1CC[C@@H](CCB(O)O)C[C@]1(N)C(=O)O [Example 3, (1R,2S,5R)-1-Amino-2-(((S)-2-amino-3-phenylpropanamido)methyl)-5-(2-boronoethyl)cyclohexane-1-carboxylic acid dihydrochloride]	> 300 nM	> 300 nM	> 100000 nM
CSCC[C@H](N)C(=O)NC[C@@H]1CC[C@@H](CCB(O)O)C[C@]1(N)C(=O)O [Example 17, (1R,2S,5R)-1-Amino-2-(((S)-2-amino-4-(methylthio)butanamido)methyl)-5-(2-boronoethyl)cyclohexane-1-carboxylic acid dihydrochloride]	1 to 99 nM	200 to 299 nM	10000 to 100000 nM
CC(C)[C@H](N)C(=O)NC[C@H]1CC[C@@H](CCB(O)O)C[C@]1(N)C(=O)O [Example 34, (1R,2R,5R)-1-Amino-2-(((S)-2-amino-3-methylbutanamido)methyl)-5-(2-boronoethyl)cyclohexane-1-carboxylic acid dihydrochloride]	> 300 nM	> 300 nM	
C[C@H](N)C(=O)NC[C@@H]1CC[C@@H](CCB(O)O)C[C@]1(N)C(=O)O [Example 1, (1R,2S,5R)-1-Amino-2-(((S)-2-aminopropanamido)methyl)-5-(2-boronoethyl)cyclohexane-1-carboxylic acid dihydrochloride]	100 to 199 nM	> 300 nM	
COC(=O)[C@@]1(N)C[C@H](CCB(O)O)CC[C@H]1CNC(=O)[C@@H](N)C(C)C [Example 32, (2-((1R,3R,4S)-3-Amino-4-(((S)-2-amino-3-methylbutanamido)methyl)-3-(methoxycarbonyl)cyclohexyl)ethyl)boronic acid dihydrochloride]	> 300 nM	> 300 nM	
N[C@@H](CC(=O)O)C(=O)NC[C@@H]1CC[C@@H](CCB(O)O)C[C@]1(N)C(=O)O [Example 29, (1R,2S,5R)-1-Amino-2-(((S)-2-amino-3-carboxypropanamido)methyl)-5-(2-boronoethyl)cyclohexane-1-carboxylic acid dihydrochloride]	> 300 nM	> 300 nM	
N[C@@H](CS)C(=O)NC[C@@H]1CC[C@@H](CCB(O)O)C[C@]1(N)C(=O)O [Example 27, (1R,2S,5R)-1-Amino-2-(((R)-2-amino-3-mercaptopropanamido)methyl)-5-(2-boronoethyl)cyclohexane-1-carboxylic acid dihydrochloride]	200 to 299 nM	> 300 nM	

Results, then the compound that gave them:

IC50 [1]	IC50 [2]	IC50 [3]	SMILES
1 to 99 nM	> 300 nM	> 100000 nM	NCC(=O)NC[C@@H]1CC[C@@H](CCB(O)O)C[C@]1(N)C(=O)O [Example 4, (1R,2S,5R)-1-Amino-2-((2-aminoacetamido)methyl)-5-(2-boronoethyl)cyclohexane-1-carboxylic acid dihydrochloride]
1 to 99 nM	> 300 nM	> 100000 nM	N=C(N)NCCC[C@H](N)C(=O)NC[C@@H]1CC[C@@H](CCB(O)O)C[C@]1(N)C(=O)O [Example 13, (1R,2S,5R)-1-Amino-2-(((S)-2-amino-5-guanidinopentanamido)methyl)-5-(2-boronoethyl)cyclohexane-1-carboxylic acid trihydrochloride]
1 to 99 nM	> 300 nM	> 100000 nM	NCCCC[C@H](N)C(=O)NC[C@@H]1CC[C@@H](CCB(O)O)C[C@]1(N)C(=O)O [Example 9, (1R,2S,5R)-1-Amino-5-(2-boronoethyl)-2-(((S)-2,6-diaminohexanamido)methyl)cyclohexane-1-carboxylic acid trihydrochloride]
1 to 99 nM	100 to 199 nM	10000 to 100000 nM	CC(C)C[C@H](N)C(=O)NC[C@@H]1CC[C@@H](CCB(O)O)C[C@]1(N)C(=O)O [Example 6, (1R,2S,5R)-1-Amino-2-(((S)-2-amino-4-methylpentanamido)methyl)-5-(2-boronoethyl)cyclohexane-1-carboxylic acid dihydrochloride]
1 to 99 nM	> 300 nM	> 100000 nM	CC[C@H](C)[C@H](N)C(=O)NC[C@@H]1CC[C@@H](CCB(O)O)C[C@]1(N)C(=O)O [Example 10, (1R,2S,5R)-1-Amino-2-(((2S,3S)-2-amino-3-methylpentanamido)methyl)-5-(2-boronoethyl)cyclohexane-1-carboxylic acid dihydrochloride]
1 to 99 nM	200 to 299 nM	> 100000 nM	CC(C)(C)[C@H](N)C(=O)NC[C@@H]1CC[C@@H](CCB(O)O)C[C@]1(N)C(=O)O [Example 12, (1R,2S,5R)-1-Amino-2-(((S)-2-amino-3,3-dimethylbutanamido)methyl)-5-(2-boronoethyl)cyclohexane-1-carboxylic acid dihydrochloride]
